According to publication PMC5412686 (Biopharmaceutics & Drug Disposition, 2017):
In brackets after ≈: the same amount, converted by molar mass. Where two headings read alike, the source gives them in different places.

What was measured:
[1] = Humans, blood/plasma ratio; ref Supplemental Table S1; cited from earlier work
[2] = Rat i.v. and oral pharmacokinetics from literature; type: in vivo, rats; settings: liver blood flow 80 ml/min/kg
[3] = human, Caco-2, pH 7.4, with cyclosporine A 10 μM
Caco‐2 cells (TC7 clone) = settings: Equation 11 from measured P‐Caco2
[4] = no medium marked (buffer pH 7.4); ref Supplemental Table S1; cited from earlier work
[5] = cited from earlier work
[6] = Rats, blood/plasma ratio; ref Supplemental Table S1; cited from earlier work
[7] = Intrinsic metabolic clearance determined in human liver microsomes; type: in vitro ADME; settings: pH 7.4
[8] = Humans, cited from earlier work; for Urinary excretion (f e): excreted unchanged in urine, ref Supplemental Table S1; for CL: i.v.; for CL / F / Vss: ref Supplemental Table S2; for F: oral bioavailability
[9] = ref Supplemental Table S1, cited from earlier work; for HBD: number of hydrogen bond donors; for PSA: polar surface area; for log D: octanol/water at pH 7.4
[10] = Rats, fraction unbound; ref Supplemental Table S1; cited from earlier work
[11] = Solubility in fasted state simulated intestinal fluid; type: physicochemical; settings: FaSSIF, 37 °C, pH 6.5, fassif, thermodynamic from solid
[12] = Humans, fraction unbound in plasma; ref Supplemental Table S1; cited from earlier work
[13] = Rats, i.v., ref Supplemental Table S2

Cc1nnc2n1-c1ccc(Cl)cc1C(c1ccccc1)=NC2 [Alprazolam]
R b [1]: 0.78
Rat blood clearance compared with liver blood flow [2]: exceeding maximum liver blood flow value
Papp at 2 h, 1 μM [3]: 38.6 ×10⁻⁶ cm/s
Calculated P eff from P‐Caco2 (Caco‐2 cells (TC7 clone)): 4.3 10^−4 cm/s
Solubility (Biorelevant media or Buffer, pH 7.4) [4]: 40 mg/ml
CL [5, 13]: 133 mL/min/kg
F ([5]; Rats, oral bioavailability, ref Supplemental Table S2): 0.28
R b [6]: 0.81
microsomal CLint at 1 μM [7]: < 10 µL/min/mg
Urinary excretion (f e) [8]: 20 % of dose
CL [8]: 3.11 L/h
F [8]: 0.96
HBD [9]: 0
PSA [9]: 33.3
f up [10]: 0.35

CN(C)CCCN1c2ccccc2Sc2ccc(Cl)cc21 [Chlorpromazine]
solubility at 24 h [11]: 814 µg/mL (≈ 2550 µM)
CL ([5]; rat, in vivo, iv): 52 mL/min/kg
F ([5]; rat, in vivo, po): 0.02
f up [12]: 0.06
microsomal CLint at 1 μM [7]: 47 µL/min/mg
CL [8]: 76.6 L/h
F [8]: 0.31
Vss [8]: 8.88 L/kg
HBD [9]: 0
log D [9]: 2.82
PSA [9]: 1.8
Base pKa [9]: 9.7
f up [10]: 0.01

CN1CCN(C2=Nc3cc(Cl)ccc3Nc3ccccc32)CC1 [Clozapine]
solubility at 24 h [11]: 350 µg/mL (≈ 1070 µM)
Papp at 2 h, 1 μM [3]: 28.4 ×10⁻⁶ cm/s
Calculated P eff from P‐Caco2 (Caco‐2 cells (TC7 clone)): 3.7 10^−4 cm/s
f up [12]: 0.06
Urinary excretion (f e) [8]: < 1 % of dose
CL [8]: 13.02 L/h
HBD [9]: 1
log D [9]: 2.99
PSA [9]: 25.6
f up [10]: 0.1

CCOC(=O)C1=C(C)NC(C)=C(C(=O)OC)C1c1cccc(Cl)c1Cl (centres unmarked) [Felodipine]
R b [1]: 0.7
solubility at 24 h [11]: 40 µg/mL (≈ 104 µM)
F ([5]; rat, in vivo, po): 0.1
R b [6]: 0.68
Urinary excretion (f e) [8]: < 1 % of dose
F [8]: 0.25
HBD [9]: 1
log D [9]: 4.76
PSA [9]: 68.7
Acid pKa [9]: 5.1
f up [10]: 0.001

CCOC(=O)c1ncn2c1CN(C)C(=O)c1cc(F)ccc1-2 [Flumazenil]
R b [1]: 1
Rat blood clearance compared with liver blood flow [2]: exceeding maximum liver blood flow value
Solubility (Biorelevant media or Buffer, pH 7.4) [4]: 0.13 mg/ml
CL [5, 13]: 147 mL/min/kg
F ([5]; rat, in vivo, po): 0.28
microsomal CLint at 1 μM [7]: 39 µL/min/mg
Urinary excretion (f e) [8]: 0.5 % of dose
CL [8]: 72.06 L/h
Vss [8]: 0.97 L/kg
HBD [9]: 0
log D [9]: 0.87
PSA [9]: 57.0
f up [10]: 0.14

COC(=O)C1=C(C)NC(C)=C(C(=O)OCCN(C)Cc2ccccc2)C1c1cccc([N+](=O)[O-])c1 (centres unmarked) [Nicardipine]
solubility at 24 h [11]: 227 µg/mL (≈ 473 µM)
F ([5]; rat, in vivo, po): 0.22
HBD [9]: 1
PSA [9]: 114.0
Base pKa [9]: 7.3
f up [10]: 0.01

CCOC(=O)C1=C(C)NC(C)=C(C(=O)OC)C1c1cccc([N+](=O)[O-])c1 (centres unmarked) [Nitrendipine]
R b [1]: 1.46
solubility at 24 h [11]: 8 µg/mL (≈ 22.2 µM)
CL [5, 13]: 16.5 mL/min/kg
F ([5]; rat, in vivo, po): 0.12
R b [6]: 1.46
Urinary excretion (f e) [8]: < 1 % of dose
CL [8]: 78.89 L/h
F [8]: 0.39
Vss [8]: 5.39 L/kg
HBD [9]: 1
log D [9]: 3.81
PSA [9]: 112.9

CC(C)(C)NC(=O)[C@@H]1C[C@@H]2CCCC[C@@H]2CN1C[C@@H](O)[C@H](Cc1ccccc1)NC(=O)[C@H](CC(N)=O)NC(=O)c1ccc2ccccc2n1 [Saquinavir]
Papp at 2 h, 1 μM [3]: 5 ×10⁻⁶ cm/s
Calculated P eff from P‐Caco2 (Caco‐2 cells (TC7 clone)): 1.6 10^−4 cm/s
Solubility (Biorelevant media or Buffer, pH 7.4) [4]: 2.22 mg/ml
CL ([5]; rat, in vivo, iv): 88.5 mL/min/kg
F ([5]; rat, in vivo, po): 0.07
f up [12]: 0.03
HBD [9]: 5
log D [9]: 5.05
PSA [9]: 178.8
Base pKa [9]: 7.7
f up [10]: 0.05

Cc1ccc(O)c([C@H](CCN(C(C)C)C(C)C)c2ccccc2)c1 [Tolterodine]
Rat blood clearance compared with liver blood flow [2]: exceeding maximum liver blood flow value
Papp at 2 h, 1 μM [3]: 26.2 ×10⁻⁶ cm/s
Calculated P eff from P‐Caco2 (Caco‐2 cells (TC7 clone)): 3.6 10^−4 cm/s
Solubility (Biorelevant media or Buffer, pH 7.4) [4]: 12 mg/ml
CL [5, 13]: 166.7 mL/min/kg
F ([5]; rat, in vivo, po): 0.02
microsomal CLint at 1 μM [7]: 115 µL/min/mg
CL [8]: 27.72 L/h
F [8]: 0.72
Vss [8]: 1.4 L/kg
HBD [9]: 1
log D [9]: 2.38
PSA [9]: 24.1
